For one data set, the system named is HBV. Description: Determination of HBV DNA from the supernatants of HepAD38 cells (anti-HBV activity). The following applies: Hepatitis B virus, HePAD38, 144 h, HBV DNA in HepAD38 supernatant, day 6, qPCR; read-out: Cell Activity. Type of data set: cell-based, hepatitis B virus. The essentials: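 EC50 derived by non-linear regression of relative HBV DNA copy numbers, measured by qPCR (plasmid standards) in day-6 filtered supernatants. Before this, HepAD38 cells were exposed to serial half-log compound dilutions without tetracycline, releasing viral expression; cultures kept at 37 °C, 5% CO2.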
In general terms: Quantitative PCR measures a nucleic acid by following its amplification.

Data set [1] has as its target HBV core protein (C-terminal truncated core protein containing 149 amino acids of the N-terminal assembly domain) (UniProt P03146). As to the kind of experiment: Biochemical capsid assembly assay (fluorescence quenching). Set-up: rows headed: Assembly Activity; other: BODIPY-FL labelled core protein, assembly started with NaCl, read after 6 min. The following applies: read-out: Assembly Activity; BODIPY-FL labelled core protein, assembly started with NaCl, read after 6 min. The essentials: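 N-terminal assembly domain (residues 1–149) plus C-terminal Cys150, E. coli-expressed, BODIPY-FL-maleimide labelled, used at 1.0–2.0 μM in 50 mM HEPES pH 7.5 with 0.5% DMSO. Assembly started with NaCl ([…]); fluorescence quenching (ex 477/em 525 nm) read after 6 min. 8-point compound series; EC50 by non-linear regression.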

Data set [2] can be described thus: Cell viability assay (AlamarBlue). The following applies: human, HepAD38 cells. In general terms: Alamar Blue is a resazurin reagent that responds to reducing activity.
Experimental: Using the AlamarBlue viability assay cytotoxicity was evaluated in HepAD38 cells in the presence of 0.3 μg/ml tetracycline, which blocks the expression of the HBV genome. Assay condition and plate layout were in analogy to the anti-HBV assay, however other controls were used. On each assay plate six wells containing untreated HepAD38 cells were used as the 100% viability control, and six wells filled with assay medium only were used as 0% viability control. In addition, a geometric concentration series of cycloheximide starting at 60 μM final assay concentration was used as positive control in each experiment. After six days incubation period Alamar Blue Presto cell viability reagent (ThermoFisher, Dreieich) was added in 1/11 dilution to each well of the assay plate. After an incubation for 30 to 45 min at 37° C. the fluorescence signal, which is proportional to the number of living cells, was read using a Tecan Spectrafluor Plus plate reader with an excitation filter 550 nm and emission filter 595 nm, respectively. Data were normalized into percentages of the untreated control (100% viability) and assay medium (0% viability) before CC50 values were calculated using non-linear regression and the GraphPad Prism 6.0 (GraphPad Software, La Jolla, USA). Mean EC50 and CC50 values were used to calculate the selectivity index (SI=CC50/EC50) for each test compound.

Our source for the EC50, IC50 and CC50 values is patent US20220363686A1 (AiCuris GmbH & Co. KG, priority 2018, published 2022).

Sequence of HBV core protein (C-terminal truncated core protein containing 149 amino acids of the N-terminal assembly domain) (P03146 whole entry, the tested form may be a part): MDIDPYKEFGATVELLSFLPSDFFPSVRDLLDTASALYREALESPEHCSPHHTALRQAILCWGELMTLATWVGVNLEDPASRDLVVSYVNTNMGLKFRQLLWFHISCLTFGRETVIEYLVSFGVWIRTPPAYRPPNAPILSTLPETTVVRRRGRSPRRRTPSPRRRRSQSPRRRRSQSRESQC

With `CN(C(=O)c1cnn2c1CN(C(=O)c1cc3c(F)c(F)ccc3[nH]1)CC2)C1(CO)CC1` [Example 81, 5-(4,5-difluoro-1H-indole-2-carbonyl)-N-[1-(hydroxymethyl)cyclopropyl]-N-methyl-4H,5H,6H,7H-pyrazolo[1,5-a]pyrazine-3-carboxamide], in the data set on HBV, the EC50 is under 1 µM. Further, the IC50 in data set [1] is under 5 µM. Also, the cytotoxic concentration (CC50) (commonly the concentration that lowers cell viability or growth by half) at 6 days in data set [2] was over 10 µM.
In the same order, the values of `Cc1cc(F)cc2[nH]c(C(=O)N3CCn4ncc(C5CCC5)c4C3)cc12` [Example 4, 2-{3-cyclobutyl-4H,5H,6H,7H-pyrazolo[1,5-a]pyrazine-5-carbonyl}-6-fluoro-4-methyl-1H-indole] are under 1 µM, under 5 µM and over 10 µM.
The like results for `O=C(c1cc2ccccc2[nH]1)N1CCn2ncc(C(=O)N3CCC(OC(F)F)CC34CC4)c2C1` (stereo not drawn) [Example 59, 2-{3-[7-(difluoromethoxy)-4-azaspiro[2.5]octane-4-carbonyl]-4H,5H,6H,7H-pyrazolo[1,5-a]pyrazine-5-carbonyl}-1H-indole] were, in that order, under 1 µM, under 5 µM and over 10 µM.
In the same order, the values of `O=C(c1cc2ccccc2[nH]1)N1CCn2ncc(C3(O)CCC3)c2C1` [Example 45, 1-[5-(1H-indole-2-carbonyl)-4H,5H,6H,7H-pyrazolo[1,5-a]pyrazin-3-yl]cyclobutan-1-ol] are 1 to 10 µM, 5 to 10 µM and over 10 µM.
As to `CN(C(=O)c1cnn2c1CN(C(=O)c1cc3ccccc3[nH]1)CC2)C1(c2cocn2)CC1` [Example 57, 5-(1H-indole-2-carbonyl)-N-methyl-N-[1-(1,3-oxazol-4-yl)cyclopropyl]-4H,5H,6H,7H-pyrazolo[1,5-a]pyrazine-3-carboxamide], the EC50 with HBV is under 1 µM. Also, the IC50 in data set [1] was under 5 µM. The same compound gave a CC50 at 6 days in data set [2] of over 10 µM.
In the same order, the values of `CN(C(=O)c1cnn2c1CN(C(=O)c1cc3cc(F)c(Cl)cc3[nH]1)CC2)C1(CO)CC1` [Example 84, 5-(6-chloro-5-fluoro-1H-indole-2-carbonyl)-N-[1-(hydroxymethyl)cyclopropyl]-N-methyl-4H,5H,6H,7H-pyrazolo[1,5-a]pyrazine-3-carboxamide] are under 1 µM, under 5 µM and over 10 µM.
In the same order, the values of `CN(C(=O)c1cnn2c1CN(C(=O)c1cc3ccccc3[nH]1)CC2)C1(CO)CC1` [Example 15, N-[1-(hydroxymethyl)cyclopropyl]-5-(1H-indole-2-carbonyl)-N-methyl-4H,5H,6H,7H-pyrazolo[1,5-a]pyrazine-3-carboxamide] are under 1 µM, under 5 µM and over 10 µM.
In the same order, the values of `C[C@H](NC(=O)c1cnn2c1CN(C(=O)c1cc3ccccc3[nH]1)CC2)C(F)(F)F` [Example 78, 5-(1H-indole-2-carbonyl)-N-[(2S)-1,1,1-trifluoropropan-2-yl]-4H,5H,6H,7H-pyrazolo[1,5-a]pyrazine-3-carboxamide] are under 1 µM, under 5 µM and over 10 µM.
As for `CN(C(=O)c1cnn2c1CN(C(=O)c1cc3c(Cl)cccc3[nH]1)CC2)C1(CO)CC1` [Example 13, 5-(4-chloro-1H-indole-2-carbonyl)-N-[1-(hydroxymethyl)cyclopropyl]-N-methyl-4H,5H,6H,7H-pyrazolo[1,5-a]pyrazine-3-carboxamide], in the data set on HBV, the EC50 is under 1 µM. The IC50 in data set [1] was under 5 µM. Also, in data set [2], the CC50 at 6 days was over 10 µM.
In the same order, the values of `CN(C(=O)c1cnn2c1CN(C(=O)c1cc3ccccc3[nH]1)CC2)C1(CCOC(F)F)CCOCC1` [Example 128] are 1 to 10 µM, under 5 µM and over 10 µM.
